{"source": "patent US20240199587A1", "about": "“HETEROCYCLIC COMPOUNDS” (Hoffmann-La Roche Inc., priority 2021, published 2024)", "data": [{"target": "T1, MAGL (Homo sapiens, UniProt Q99685)", "T1 sequence (Q99685 1-303)": "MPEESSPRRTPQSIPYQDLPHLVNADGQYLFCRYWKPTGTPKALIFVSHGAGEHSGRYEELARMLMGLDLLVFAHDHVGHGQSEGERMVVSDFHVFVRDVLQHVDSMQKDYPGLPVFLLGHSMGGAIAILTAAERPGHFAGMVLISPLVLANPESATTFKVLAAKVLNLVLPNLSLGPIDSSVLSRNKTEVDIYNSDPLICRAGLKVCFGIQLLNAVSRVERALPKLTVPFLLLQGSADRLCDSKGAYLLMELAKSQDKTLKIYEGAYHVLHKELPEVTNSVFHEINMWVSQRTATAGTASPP", "assay": "2-AG assay (MAGL inhibitory activity, hydrolysis of 2-arachidonoylglycerol to arachidonic acid followed by mass spectrometry)", "assay_type": "biochemical", "conditions": "8 μM 2-arachidonoylglycerol, 15 min pre-incubation, 30 min incubation at RT, RapidFire MS readout", "how_it_was_run": "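Human MAGL ([…] final) pre-incubated 15 min at RT with compound in 50 mM TRIS, 1 mM EDTA, 0.01% Tween-20, 2.5% DMSO; 8 μM 2-AG then added for 30 min at RT. Acetonitrile quench with d8-arachidonic acid; arachidonic acid measured by RapidFire SPE–MS/MS, activity from arachidonic acid/d8 ratio.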", "units": {"IC50": "nM"}, "values": [{"smiles": "N#Cc1cc(C2CC2)ccc1OC1CN(C(=O)N2CC3(CC(n4cnc(C5CC5)n4)C3)C2)C1", "note": "[Example 188, 5-cyclopropyl-2-[1-[6-(3-cyclopropyl-1,2,4-triazol-1-yl)-2-azaspiro[3.3]heptane-2-carbonyl]azetidin-3-yl]oxy-benzonitrile]", "IC50": 0.2}, {"smiles": "O=C(N1CC2(CC(n3cnc(C4CC4)n3)C2)C1)N1CC2(CN(Cc3ccc(C(F)(F)F)cc3F)C2)C1", "note": "[Example 189, [6-(3-cyclopropyl-1,2,4-triazol-1-yl)-2-azaspiro[3.3]heptan-2-yl]-[6-[[2-fluoro-4-(trifluoromethyl)phenyl]methyl]-2,6-diazaspiro[3.3]heptan-2-yl]methanone]", "IC50": 0.2}, {"smiles": "O=C(N1CC(Oc2ccc(C3CC3)cc2F)C1)N1CC2(CC(n3cnc(C4CC4)n3)C2)C1", "note": "[Example 190, [3-(4-cyclopropyl-2-fluoro-phenoxy)azetidin-1-yl]-[6-(3-cyclopropyl-1,2,4-triazol-1-yl)-2-azaspiro[3.3]heptan-2-yl]methanone]", "IC50": 0.2}, {"smiles": "N#Cc1c(OC2CN(C(=O)N3CC4(CC(n5cnc(C6CC6)n5)C4)C3)C2)cccc1C1CC1", "note": "[Example 191, 2-cyclopropyl-6-[1-[6-(3-cyclopropyl-1,2,4-triazol-1-yl)-2-azaspiro[3.3]heptane-2-carbonyl]azetidin-3-yl]oxy-benzonitrile]", "IC50": 0.2}, {"smiles": "CS(=O)(=O)c1cccc(CC2CC3(C2)CN(C(=O)N2CC4(CC(n5cnc(C6CC6)n5)C4)C2)C3)c1", "note": "[Example 192, [6-(3-cyclopropyl-1,2,4-triazol-1-yl)-2-azaspiro[3.3]heptan-2-yl]-[6-(3-mesylbenzyl)-2-azaspiro[3.3]heptan-2-yl]methanone]", "IC50": 0.2}, {"smiles": "O=C(N1CC2(CC(Cc3cnc(C(F)(F)F)cn3)C2)C1)N1CC2(CC(n3cnc(C4CC4)n3)C2)C1", "note": "[Example 193, [6-(3-cyclopropyl-1,2,4-triazol-1-yl)-2-azaspiro[3.3]heptan-2-yl]-[6-[[5-(trifluoromethyl)pyrazin-2-yl]methyl]-2-azaspiro[3.3]heptan-2-yl]methanone]", "IC50": 0.3}, {"smiles": "COC(=O)C(C)(C)Cc1cccc(OC2CN(C(=O)N3CC4(CC(n5cnc(C6CC6)n5)C4)C3)C2)c1", "note": "[Example 194, methyl 3-[3-[1-[6-(3-cyclopropyl-1,2,4-triazol-1-yl)-2-azaspiro[3.3]heptane-2-carbonyl]azetidin-3-yl]oxyphenyl]-2,2-dimethyl-propanoate]", "IC50": 0.3}, {"smiles": "O=C(N1CC2(CC(NS(=O)(=O)c3cccc(C(F)(F)F)c3)C2)C1)N1CC2(CC(n3cnc(C4CC4)n3)C2)C1", "note": "[Example 195, N-[2-[6-(3-cyclopropyl-1,2,4-triazol-1-yl)-2-azaspiro[3.3]heptane-2-carbonyl]-2-azaspiro[3.3]heptan-6-yl]-3-(trifluoromethyl)benzen esulfonamide]", "IC50": 0.4}, {"smiles": "O=C(N1CC2(CC(n3cnc(C4CC4)n3)C2)C1)N1CC2(CN(Cc3ccc(F)cc3C(F)(F)F)C2)C1", "note": "[Example 196, [6-(3-cyclopropyl-1,2,4-triazol-1-yl)-2-azaspiro[3.3]heptan-2-yl]-[6-[[4-fluoro-2-(trifluoromethyl)phenyl]methyl]-2,6-diazaspiro[3.3]heptan-2-yl]methanone]", "IC50": 0.4}, {"smiles": "O=C(N1CCC([C@H](c2ccc(F)cc2)c2nc(C3CC3)no2)CC1)N1CC2(CC(n3cnc(C4CC4)n3)C2)C1", "note": "[Example 197, [4-[(R)-(3-cyclopropyl-1,2,4-oxadiazol-5-yl)-(4-fluorophenyl)methyl]-1-piperidyl]-[6-(3-cyclopropyl-1,2,4-triazol-1-yl)-2-azaspiro[3.3]heptan-2-yl]methanone]", "IC50": 0.4}, {"smiles": "O=C(N1CC(Oc2cccc(C3CC3)c2F)C1)N1CC2(CC(n3cnc(C4CC4)n3)C2)C1", "note": "[Example 198, [3-(3-cyclopropyl-2-fluoro-phenoxy)azetidin-1-yl]-[6-(3-cyclopropyl-1,2,4-triazol-1-yl)-2-azaspiro[3.3]heptan-2-yl]methanone]", "IC50": 0.5}, {"smiles": "O=C(N1CC2(CC(Cc3ncc(F)cc3F)C2)C1)N1CC2(CC(n3cnc(C4CC4)n3)C2)C1", "note": "[Example 199, [6-(3-cyclopropyl-1,2,4-triazol-1-yl)-2-azaspiro[3.3]heptan-2-yl]-[6-[(3,5-difluoro-2-pyridyl)methyl]-2-azaspiro[3.3]heptan-2-yl]methanone]", "IC50": 0.5}, {"smiles": "COC(=O)C(C)(C)c1cccc(OC2CN(C(=O)N3CC4(CC(n5cnc(C6CC6)n5)C4)C3)C2)c1", "note": "[Example 200, methyl 2-[3-[1-[6-(3-cyclopropyl-1,2,4-triazol-1-yl)-2-azaspiro[3.3]heptane-2-carbonyl]azetidin-3-yl]oxyphenyl]-2-methyl-propanoate]", "IC50": 0.7}, {"smiles": "O=C(N1CC2(CC(n3cnc(C4CC4)n3)C2)C1)N1CC2(CN(Cc3ccc(F)cc3Cl)C2)C1", "note": "[Example 201, (6-(2-chloro-4-fluorobenzyl)-2,6-diazaspiro[3.3]heptan-2-yl)(6-(3-cyclopropyl-1H-1,2,4-triazol-1-yl)-2-azaspiro[3.3]heptan-2-yl)methanone]", "IC50": 0.7}, {"smiles": "O=C(N1CC(Oc2ccc(C(F)(F)F)cc2)C1)N1CC2(CC(n3cnc(C4CC4)n3)C2)C1", "note": "[Example 202, [6-(3-cyclopropyl-1,2,4-triazol-1-yl)-2-azaspiro[3.3]heptan-2-yl]-[3-[4-(trifluoromethyl)phenoxy]azetidin-1-yl]methanone]", "IC50": 0.7}, {"smiles": "CC(C)c1ncn(C2CC3(C2)CN(C(=O)N2CC4(CC(Cc5ccc(F)cc5F)C4)C2)C3)n1", "note": "[Example 203, [6-[(2,4-difluorophenyl)methyl]-2-azaspiro[3.3]heptan-2-yl]-[6-(3-isopropyl-1,2,4-triazol-1-yl)-2-azaspiro[3.3]heptan-2-yl]methanone]", "IC50": 0.8}, {"smiles": "O=C(N1CC(Oc2nccc(C3CC3)c2F)C1)N1CC2(CC(n3cnc(C4CC4)n3)C2)C1", "note": "[Example 204, [3-[(4-cyclopropyl-3-fluoro-2-pyridyl)oxy]azetidin-1-yl]-[6-(3-cyclopropyl-1,2,4-triazol-1-yl)-2-azaspiro[3.3]heptan-2-yl]methanone]", "IC50": 0.8}, {"smiles": "CS(=O)(=O)c1ccc(CC2CC3(C2)CN(C(=O)N2CC4(CC(n5cnc(C6CC6)n5)C4)C2)C3)cc1", "note": "[Example 205, [6-(3-cyclopropyl-1,2,4-triazol-1-yl)-2-azaspiro[3.3]heptan-2-yl]-[6-(4-mesylbenzyl)-2-azaspiro[3.3]heptan-2-yl]methanone]", "IC50": 0.9}, {"smiles": "O=C(N1CC(c2ccc(N3CC(O)(C(F)(F)F)C3)nc2)C1)N1CC2(CC(n3cnc(C4CC4)n3)C2)C1", "note": "[Example 206, [6-(3-cyclopropyl-1,2,4-triazol-1-yl)-2-azaspiro[3.3]heptan-2-yl]-[3-[6-[3-hydroxy-3-(trifluoromethyl)azetidin-1-yl]-3-pyridyl]azetidin-1-yl]methanone]", "IC50": 0.9}, {"smiles": "O=C(N1CCC(C(c2ccc(F)cc2)c2nc(C3CC3)no2)CC1)N1CC2(CC(n3cnc(C4CC4)n3)C2)C1", "note": "(centres unmarked) [Example 207, [4-[(3-cyclopropyl-1,2,4-oxadiazol-5-yl)-(4-fluorophenyl)methyl]-1-piperidyl]-[6-(3-cyclopropyl-1,2,4-triazol-1-yl)-2-azaspiro[3.3]heptan-2-yl]methanone]", "IC50": 1}, {"smiles": "O=C(N1CC(Oc2ccc(C3CC3)nc2F)C1)N1CC2(CC(n3cnc(C4CC4)n3)C2)C1", "note": "[Example 208, [3-[(6-cyclopropyl-2-fluoro-3-pyridyl)oxy]azetidin-1-yl]-[6-(3-cyclopropyl-1,2,4-triazol-1-yl)-2-azaspiro[3.3]heptan-2-yl]methanone]", "IC50": 1.1}, {"smiles": "O=C(N1CC2(CC(n3cnc(C4CC4)n3)C2)C1)N1CC2(C1)CN(S(=O)(=O)c1cccc(C(F)(F)F)c1)C2", "note": "[Example 209, [6-(3-cyclopropyl-1,2,4-triazol-1-yl)-2-azaspiro[3.3]heptan-2-yl]-[2-[3-(trifluoromethyl)phenyl]sulfonyl-2,6-diazaspiro[3.3]heptan-6-yl]methanone]", "IC50": 1.2}, {"smiles": "O=C(N1CC(Oc2ccc(C3CC3)cn2)C1)N1CC2(CC(n3cnc(C4CC4)n3)C2)C1", "note": "[Example 210, [3-[(5-cyclopropyl-2-pyridyl)oxy]azetidin-1-yl]-[6-(3-cyclopropyl-1,2,4-triazol-1-yl)-2-azaspiro[3.3]heptan-2-yl]methanone]", "IC50": 1.3}, {"smiles": "O=C(N1CC2(CC(n3cnc(C4CC4)n3)C2)C1)N1CC2(C1)CN(S(=O)(=O)c1ccc(F)cc1C(F)(F)F)C2", "note": "[Example 211, (6-(3-cyclopropyl-1H-1,2,4-triazol-1-yl)-2-azaspiro[3.3]heptan-2-yl)(6-((4-fluoro-2-(trifluoromethyl)phenyl)sulfonyl)-2,6-diazaspiro[3.3]heptan-2-yl)methanone]", "IC50": 1.4}, {"smiles": "O=C(N1CC(c2ccc(N3CCC(O)(C(F)(F)F)C3)nc2)C1)N1CC2(CC(n3cnc(C4CC4)n3)C2)C1", "note": "(centres unmarked) [Example 212, [6-(3-cyclopropyl-1,2,4-triazol-1-yl)-2-azaspiro[3.3]heptan-2-yl]-[3-[6-[3-hydroxy-3-(trifluoromethyl)pyrrolidin-1-yl]-3-pyridyl]azetidin-1-yl]methanone]", "IC50": 1.5}, {"smiles": "O=C(N1CC2(CC(n3cnc(C4CC4)n3)C2)C1)N1CC2(C1)CN(S(=O)(=O)c1cc(F)cc(F)c1)C2", "note": "[Example 213, [6-(3-cyclopropyl-1,2,4-triazol-1-yl)-2-azaspiro[3.3]heptan-2-yl]-[2-(3,5-difluorophenyl)sulfonyl-2,6-diazaspiro[3.3]heptan-6-yl]methanone]", "IC50": 1.6}]}]}
